According to patent US20140179664A1, “Heterocyclyl Pyrimidine Analogues As JAK Inhibitors” (Cellzome Limited, priority 2011, published 2014):

Experiments:
[1] = biological target: T1, JAK2 (Homo sapiens, UniProt O60674); assay: Kinobeads assay, JAK2; format: binding; conditions: mixed Molt4/Ramos lysate, read-out: Inhibition values (IC50) JAK2
T1 construct: endogenous in cells; host or cells: Molt4 (ATCC CRL-1582) and Ramos (ATCC CRL-1596), mixed lysate 1:2
Summary of the method: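 Mixed Molt4/Ramos lysate (1:2, 10 mg/mL protein) was incubated 3 h in the cold with the immobilized aminopyrido-pyrimidine affinity matrix and compound, 9-step 1:3 dilutions. Bead-bound kinases were eluted and quantified by antibody dot blot with infrared detection. IC50s are from dose-response curves.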

[2] = biological target: T2, JAK3 (Homo sapiens, UniProt P52333); assay: Kinobeads assay, JAK3; format: binding; conditions: mixed Molt4/Ramos lysate, read-out: Inhibition values (IC50) JAK3
T2 construct: endogenous in cells; host or cells: Molt4 (ATCC CRL-1582) and Ramos (ATCC CRL-1596), mixed lysate 1:2
T2 sequence (P52333 1-1124): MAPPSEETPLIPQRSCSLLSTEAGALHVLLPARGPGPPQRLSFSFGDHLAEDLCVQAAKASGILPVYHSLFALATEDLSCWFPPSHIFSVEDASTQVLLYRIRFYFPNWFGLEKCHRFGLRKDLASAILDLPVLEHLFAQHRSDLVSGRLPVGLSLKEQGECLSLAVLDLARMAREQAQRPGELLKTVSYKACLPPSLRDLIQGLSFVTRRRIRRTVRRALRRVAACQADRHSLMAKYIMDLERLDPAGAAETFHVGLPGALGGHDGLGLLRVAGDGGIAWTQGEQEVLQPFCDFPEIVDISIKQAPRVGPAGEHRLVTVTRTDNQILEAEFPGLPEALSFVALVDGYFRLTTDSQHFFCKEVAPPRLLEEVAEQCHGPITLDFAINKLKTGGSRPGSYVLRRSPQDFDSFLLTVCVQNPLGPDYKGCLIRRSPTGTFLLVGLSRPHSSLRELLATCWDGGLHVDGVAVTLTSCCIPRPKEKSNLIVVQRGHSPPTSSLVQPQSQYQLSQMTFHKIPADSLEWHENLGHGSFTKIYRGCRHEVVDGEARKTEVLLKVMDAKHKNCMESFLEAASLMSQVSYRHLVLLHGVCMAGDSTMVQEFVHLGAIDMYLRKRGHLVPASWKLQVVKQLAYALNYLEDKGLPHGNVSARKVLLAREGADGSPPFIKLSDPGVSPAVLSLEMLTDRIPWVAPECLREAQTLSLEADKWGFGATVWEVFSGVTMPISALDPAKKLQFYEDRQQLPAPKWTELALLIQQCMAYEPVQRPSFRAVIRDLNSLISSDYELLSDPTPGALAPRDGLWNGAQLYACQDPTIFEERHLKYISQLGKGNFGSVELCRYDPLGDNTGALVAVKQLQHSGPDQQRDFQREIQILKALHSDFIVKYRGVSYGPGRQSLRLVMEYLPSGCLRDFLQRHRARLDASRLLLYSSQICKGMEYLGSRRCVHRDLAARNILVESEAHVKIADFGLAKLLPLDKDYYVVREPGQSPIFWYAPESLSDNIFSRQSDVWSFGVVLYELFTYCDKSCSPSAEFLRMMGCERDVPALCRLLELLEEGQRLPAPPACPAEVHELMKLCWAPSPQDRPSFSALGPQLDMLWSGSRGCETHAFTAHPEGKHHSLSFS
Protocol: The compounds of the present invention as described in the previous examples were tested in a Kinobeads™ assay as described for ZAP-70 (WO-A 2007/137867). Briefly, test compounds (at various concentrations) and the affinity matrix with the immobilized aminopyrido-pyrimidine ligand 24 were added to cell lysate aliquots and allowed to bind to the proteins in the lysate sample. After the incubation time the beads with captured proteins were separated from the lysate. Bound proteins were then eluted and the presence of JAK1, JAK2, JAK3 and TYK2 was detected and quantified using specific antibodies in a dot blot procedure and the Odyssey infrared detection system. Dose response curves for individual kinases were generated and IC50 values calculated. Kinobeads™ assays for ZAP-70 (WO-A 2007/137867) and for kinase selectivity profiling (WO-A 2006/134056) have been previously described.
The affinity matrix was washed two times with 15 mL of lx DP buffer containing 0.2% NP40 (IGEPAL® CA-630, Sigma, #13021) and then resuspended in 1×DP buffer containing 0.2% NP40 (3% beads slurry).
5×DP buffer: 250 mM Tris-HCl pH 7.4, 25% Glycerol, 7.5 mM MgCl2, 750 mM NaCl, 5 mM Na3VO4; filter the 5×DP buffer through a 0.22 μm filter and store in aliquots at −80° C. The 5×DP buffer is diluted with H2O to 1×DP buffer containing 1 mM DTT and 25 mM NaF.
Stock solutions of test compounds were prepared in DMSO. In a 96 well plate […] solution of diluted test compounds at 5 mM in DMSO were prepared. Starting with this solution a 1:3 dilution series (9 steps) was prepared. For control experiments (no test compound) a buffer containing 2% DMSO was used.
Molt4 cells (ATCC catalogue number CRL-1582) and Ramos cells (ATCC catalogue number CRL-1596) were grown in 1 L Spinner flasks (Integra Biosciences, #182101) in suspension in RPMI 1640 medium (Invitrogen, #21875-034) supplemented with 10% Fetal Bovine Serum (Invitrogen) at a density between 0.15×10^6 and 1.2×10^6 cells/mL. Cells were harvested by centrifugation, washed once with 1×PBS buffer (Invitrogen, #14190-094) and cell pellets were frozen in liquid nitrogen and subsequently stored at −80° C. Cells were homogenized in a Potter S homogenizer in lysis buffer: 50 mM Tris-HCl, 0.8% NP40, 5% glycerol, 150 mM NaCl, 1.5 mM MgCl2, 25 mM NaF, 1 mM sodium vanadate, 1 mM DTT, pH 7.5. One complete EDTA-free tablet (protease inhibitor cocktail, Roche Diagnostics, 1873580) per 25 mL buffer was added. The material was dounced 10 times using a mechanized POTTER S, transferred to 50 mL falcon tubes, incubated for 30 minutes on ice and spun down for 10 minutes at 20,000 g at 4° C. (10,000 rpm in Sorvall SLA600, precooled). The supernatant was transferred to an ultracentrifuge (UZ)-polycarbonate tube (Beckmann, 355654) and spun for 1 hour at 100.000 g at 4° C. (33.500 rpm in Ti50.2, precooled). The supernatant was transferred again to a fresh 50 mL falcon tube, the protein concentration was determined by a Bradford assay (BioRad) and samples containing 50 mg of protein per aliquot were prepared. The samples were immediately used for experiments or frozen in liquid nitrogen and stored frozen at −80° C.
Cell lysate (approximately 50 mg protein per plate) was thawed in a water bath at room temperature and then stored on ice. To the thawed cell lysate 1×DP 0.8% NP40 buffer containing protease inhibitors (1 tablet for 25 mL buffer; EDTA-free protease inhibitor cocktail; Roche Diagnostics 1873580) was added in order to reach a final protein concentration of 10 mg/mL total protein. The diluted cell lysate was stored on ice. Mixed Molt4/Ramos lysate was prepared by combining one volume of Molt4 lysate and two volumes of Ramos lysate (ratio 1:2).
To a 96 well filter plate (Multiscreen HTS, BV Filter Plates, Millipore #MSBVN1250) were added per well: 100 μL affinity matrix (3% beads slurry), […], of compound solution, and 50 μL of diluted lysate. […]

T1 sequence (O60674 whole entry): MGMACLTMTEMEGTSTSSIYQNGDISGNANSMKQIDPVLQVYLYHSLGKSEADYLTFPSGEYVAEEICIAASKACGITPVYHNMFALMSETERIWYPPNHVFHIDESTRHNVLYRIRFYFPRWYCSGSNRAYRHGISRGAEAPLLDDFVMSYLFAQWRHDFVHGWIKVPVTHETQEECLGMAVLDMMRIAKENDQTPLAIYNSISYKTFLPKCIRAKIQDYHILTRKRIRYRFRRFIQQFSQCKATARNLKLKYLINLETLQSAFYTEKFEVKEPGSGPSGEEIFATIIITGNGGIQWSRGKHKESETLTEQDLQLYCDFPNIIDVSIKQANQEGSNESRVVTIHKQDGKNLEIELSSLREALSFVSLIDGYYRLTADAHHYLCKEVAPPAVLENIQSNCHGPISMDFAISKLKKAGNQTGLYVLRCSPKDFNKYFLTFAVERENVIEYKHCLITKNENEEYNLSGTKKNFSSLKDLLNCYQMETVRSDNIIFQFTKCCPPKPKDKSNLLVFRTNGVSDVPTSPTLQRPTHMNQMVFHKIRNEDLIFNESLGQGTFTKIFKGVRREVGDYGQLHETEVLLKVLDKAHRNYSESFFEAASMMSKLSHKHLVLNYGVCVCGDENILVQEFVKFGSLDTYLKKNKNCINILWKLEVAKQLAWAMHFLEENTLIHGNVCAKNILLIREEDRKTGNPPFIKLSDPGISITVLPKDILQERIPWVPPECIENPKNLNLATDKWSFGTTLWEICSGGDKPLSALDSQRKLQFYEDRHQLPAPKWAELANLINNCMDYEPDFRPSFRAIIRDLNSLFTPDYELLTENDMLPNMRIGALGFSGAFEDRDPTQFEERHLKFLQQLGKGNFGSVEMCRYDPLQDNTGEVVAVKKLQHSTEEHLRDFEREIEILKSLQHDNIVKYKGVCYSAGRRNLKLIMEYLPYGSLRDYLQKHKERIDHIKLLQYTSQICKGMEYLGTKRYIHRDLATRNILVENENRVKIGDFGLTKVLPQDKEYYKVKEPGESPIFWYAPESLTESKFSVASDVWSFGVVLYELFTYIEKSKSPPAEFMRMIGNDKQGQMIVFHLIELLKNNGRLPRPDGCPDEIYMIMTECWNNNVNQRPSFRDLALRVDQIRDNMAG

Row | SMILES | IC50 [1] | IC50 [2]
1 | CCNC(=O)[C@@H](Nc1nc(Nc2cnn(CCO)c2)ncc1Cl)c1ccccc1 [Compound 27] | ≥ 10000 nM | < 100 nM
2 | CCNC(=O)[C@@H](Nc1nc(Nc2cnn(C)c2)ncc1Cl)c1ccccc1 [Compound 28] | ≥ 10000 nM | < 100 nM
3 | COCCNC(=O)[C@@H](Nc1nc(Nc2cnn(C)c2)ncc1Cl)c1ccccc1 [Compound 29] | 1000 to 10000 nM | < 100 nM
4 | CN(C)C(=O)Cn1cc(Nc2ncc(Cl)c(N[C@H](CO)c3ccccc3)n2)cn1 [Compound 30] | 1000 to 10000 nM | < 100 nM
5 | CNC(=O)Cn1cc(Nc2ncc(Cl)c(NC(CO)c3c(F)cccc3F)n2)cn1 (centres unmarked) [Compound 31] | 1000 to 10000 nM | < 100 nM
6 | CNC(=O)Cn1cc(Nc2ncc(Cl)c(NC(CO)c3cccc(F)c3)n2)cn1 (centres unmarked) [Compound 32] | 1000 to 10000 nM | < 100 nM
7 | CNC(=O)Cn1cc(Nc2ncc(Cl)c(NC(CO)c3ccccc3F)n2)cn1 (centres unmarked) [Compound 33] | 1000 to 10000 nM | < 100 nM
8 | Cn1cc(Nc2ncc(Cl)c(N[C@H](C(=O)N3CCCC3)c3ccccc3)n2)cn1 [Compound 34] | 1000 to 10000 nM | 100 to 1000 nM
9 | O=C([C@@H](Nc1nc(Nc2cnn(CCO)c2)ncc1Cl)c1ccccc1)N1CCCC1 [Compound 35] | 1000 to 10000 nM | 100 to 1000 nM
10 | OCCn1cc(Nc2ncc(Cl)c(NC(CO)c3ccccc3F)n2)cn1 (centres unmarked) [Compound 36] | 1000 to 10000 nM | < 100 nM
11 | Cn1cc(Nc2ncc(Cl)c(NC(CO)c3ccccc3F)n2)cn1 (centres unmarked) [Compound 37] | 1000 to 10000 nM | < 100 nM
12 | CC(O)Cn1cc(Nc2ncc(Cl)c(NC(CO)c3cccc(F)c3)n2)cn1 (centres unmarked) [Compound 38] | 1000 to 10000 nM | < 100 nM
13 | OCCn1cc(Nc2ncc(Cl)c(NC(CO)c3cccc(F)c3)n2)cn1 (centres unmarked) [Compound 39] | 100 to 1000 nM | < 100 nM
14 | Cn1cc(Nc2ncc(Cl)c(NC(CO)c3cccc(F)c3)n2)cn1 (centres unmarked) [Compound 40] | 1000 to 10000 nM | < 100 nM
15 | OCCn1ccc(Nc2ncc(Cl)c(NC(CO)c3cccc(F)c3)n2)n1 (centres unmarked) [Compound 41] | ≥ 10000 nM | 100 to 1000 nM
16 | CC(O)Cn1cc(Nc2ncc(Cl)c(NC(CO)c3c(F)cccc3F)n2)cn1 (centres unmarked) [Compound 42] | 1000 to 10000 nM | < 100 nM
17 | OCCn1cc(Nc2ncc(Cl)c(NC(CO)c3c(F)cccc3F)n2)cn1 (centres unmarked) [Compound 43] | 1000 to 10000 nM | < 100 nM
18 | Cn1cc(Nc2ncc(Cl)c(NC(CO)c3c(F)cccc3F)n2)cn1 (centres unmarked) [Compound 44] | 1000 to 10000 nM | < 100 nM
19 | OCCn1ccc(Nc2ncc(Cl)c(NC(CO)c3c(F)cccc3F)n2)n1 (centres unmarked) [Compound 45] | ≥ 10000 nM | 100 to 1000 nM
